Data as given in patent US20260202397A1, “POTENCY ASSAY FOR PHARMACEUTICAL PRODUCTS” (REPAIRON MUSCLE UG, priority 2022, published 2026).
In brackets after ≈: the same amount, converted by molar mass. Entries after “also recorded” stand apart in the source; their conditions may differ.

Tests used:
[1] = system: BioEngineered Neuronal Organoids (BENOs); experiment: Multi-electrode array (MEA) recording of BENO network activity; type: cell-based, human; conditions: for Burst Frequency (Hz) / Interspike Interval in a burst / Network Burst (NB) Frequency / Number of Active Electrodes / Weighted Mean Firing Rate (Hz) / Burst Frequency (Hz), effect vs reference BENO / Interspike Interval in a burst (s), effect vs reference BENO / Network Burst (NB) Frequency, effect vs reference BENO / Number of Active Electrodes, effect vs reference BENO / Weighted Mean Firing Rate (Hz), effect vs reference BENO: CNQX 15 μM; for Burst frequency, change in words / Weighted mean firing rate, change in words: text and figure legend
Excerpt: BioEngineered Neuronal Organoids (BENOs) were generated in line with the BENO generation protocol provided in Zafeiriou et al. (Nature Communications, 2020, 11:3791, https://doi.org/10.1038/s41467-020-17521-w).
The method used for this illustrative example was a multi-electrode array (MEA) recording. In particular, six-well plates with 64 platinum microelectrodes arrays per well (0.04 MQ/microelectrode, 30 μm microelectrode diameter, 200 μm spacing) were coated with Matrigel™ 1:120 diluted in PBS for 1 h at room temperature prior seeding. One or two slices (thickness: 300 μm) were placed into a MEA well and immobilized by a concentrically coiled tungsten ring. 10-15 min recordings/2 h were performed every other day for up to 60 days using a Maestro pro MEA system (Axion Biosystems). Data recordings were automatically scheduled with the Axion Software (AxIS Navigator) using the manufacturer's Spontaneous Neural Configuration. Data analysis was performed using the manufacturer's standalone tools, Neural Metric Tool, and AxIS Metric Plotting Tool (Axion Biosystems). […] Spike bursts were identified using an ISI threshold requiring a minimum number of five spikes with a maximum ISI of 100 ms. Network Bursts (NB) were identified by an envelope algorithm with a threshold of 1.25, minimum IBI interval of 100 ms, 75% burst inclusion with a minimum of 10% active electrodes.

[2] = system: Engineered connective tissues (ECT); experiment: ECT contraction by pole deflection analysis (reference ECT +/- TGF-β1); type: cell-based, human; conditions: 5 ng/ml TGF-β1 applied at day 4, day 10 of the drug effect testing phase (absolute day 13), 6 technical replicates
Excerpt: The general experimental procedure was identical for all used cells, including primary fibroblasts and iPSC-StC. Supporting information in view of the ECT model, in particular its generation, may also be found in Santos et al. (2021, Fibroblast Derived Human Engineered Connective Tissue for Screening Applications. J. Vis. Exp. e62700, doi: 10.3791/62700, PMID: 34487119), Santos et al. (2022, Using different geometries to modulate the cardiac fibroblast phenotype and the biomechanical properties of engineered connective tissues. Biomater Adv. 139:213041, PMID: 35909053), and EP20188364. In particular, acid solubilized, collagen type 1 was mixed 1:1 with 2× DMEM containing 20% fetal calf serum and antibiotics. […]
Pole deflection measurement and platforms are well-established in the art, cf. e.g. WO2017/207431 (also granted as DE 10 2016 110 328 B3). […] Pole deflection as a function of ECT compaction was calculated as follows: 100×(pole distanceday 0-pole distanceday x)/pole distanceday 0.
Reference ECT were analyzed, which were treated with a drug solvent in absence or presence of TGF-β1, with TGF-β1 application serving as additional reference with respect to pro-fibrotic drug characterization. […]

[3] = system: Engineered connective tissues (ECT); experiment: ECT stiffness (Young's modulus) by ultimate tensile testing; type: cell-based, human; conditions: 5 ng/ml TGF-β1, day 10 of the drug effect testing phase (absolute day 13), 8 replicates
Method: Reference ECT were generated and treated similar as described herein in Example 1. In contrast to the pole deflection analysis disclosed in Example 1 herein, 8 ECT were harvested for the ultimate tensile testing at the moment when the plateau was reached and before a drug solvent was applied with or without TGF-β1. Residual ECT were cultured for further 10 days. Then, macroscopic images were taken from the ECT on the poles to estimate their cross-sectional areas based on the observed ECT thicknesses. Ultimate tensile testing was performed with a dynamic mechanical analyzer (DMA). Therefore, ECT were loaded onto two hooks clamped to a DMA in a 37° C. tempered organ bath filled with PBS. Then, uniaxial stretch at a constant linear rate of approximately 1% (0.03 mm/s) was applied until the ECT ruptured. The recorded force traces were converted into stress-strain curves. The Young's modulus representing the stiffness of the ECT was analyzed by determining the slope of the linear part of curve within the elastic region (FIG. 3A). All measurements were performed in 8 replicates. […]

[4] = Pirfenidone IC50 in vitro
[5] = BENO day 50 to day 60, 10 min treatment, PIC 58 μM, 4 tissues
[6] = BENO day 60, 10 min treatment, PIC 58 μM, threshold 2× SD
[7] = BENO day 60, treated vs reference
[8] = BENO day 60, treated vs reference, listed as Picrotoxin

Row | Compound | Burst Frequency (Hz) [1, 5] | Interspike Interval in a burst [1, 5] | Network Burst (NB) Frequency [1, 5] | Number of Active Electrodes [1, 5] | Weighted Mean Firing Rate (Hz) [1, 5] | Burst Frequency (Hz), effect vs reference BENO [1, 6] | Interspike Interval in a burst (s), effect vs reference BENO [1, 6] | Network Burst (NB) Frequency, effect vs reference BENO [1, 6] | Number of Active Electrodes, effect vs reference BENO [1, 6] | Weighted Mean Firing Rate (Hz), effect vs reference BENO [1, 6] | Network burst frequency, change in words [1, 7] | Burst frequency, change in words [1, 7] | Weighted mean firing rate, change in words [1, 7] | other results
1 | C=C(C)[C@@H]1[C@H]2OC(=O)[C@@H]1[C@]1(O)C[C@H]3OC34C(=O)O[C@H]2[C@@]41C.CC(C)(O)[C@@H]1[C@H]2OC(=O)[C@@H]1[C@]1(O)C[C@H]3OC34C(=O)O[C@H]2[C@@]41C (stereo partly shown) [PIC, Picrotoxin] | 0.2 Hz | 0.02 s | 0.09 | 23 | 4.7 Hz | ↑ (>2SD increase) | ↔ (<2SD change) | ↑ (>2SD increase) | ↔ (<2SD change) | ↑ (>2SD increase) | increased | increase | increase | Interspike Interval in a NB [1, 5]: 0.002 s; NB Duration [1, 5]: 1.4 ± 0.4 s; NB percentage [1, 5]: 43 ± 42; Spontaneous activity, change in words ([1]; BENO day 60): increased; Interspike Interval in a NB (s), effect vs reference BENO [1, 6]: ↔ (<2SD change); NB Duration (s), effect vs reference BENO [1, 6]: ↑ (>2SD increase); NB percentage, effect vs reference BENO [1, 6]: ↔ (<2SD change); Network burst duration (network burst complexity), change in words [1, 7]: decreased; Burst frequency, change in words [1, 8]: increases; Weighted mean firing rate, change in words [1, 8]: increased
2 | N#Cc1cc2[nH]c(=O)c(=O)[nH]c2cc1[N+](=O)[O-] [CNQX, Cyanquixalin] | 0.02 Hz | 0.03 s | 0 | 2 | 0.6 Hz | ↔ (<2SD change) | ↑ (>2SD increase) | ↓ (>2SD decrease) | ↓ (>2SD decrease) | ↓ (>2SD decrease) | decrease | reduced to the predetermined threshold of 2× SD, though not exceeding it; also recorded: decrease; also recorded: reduced | decrease; also recorded: reduced | Interspike interval in a burst, change in words ([1]; BENO day 60, after treatment): higher
3 | TGF-B1: pro-fibrotic cytokine applied at 5 ng/ml to reference ECT |  |  |  |  |  |  |  |  |  |  |  |  |  | Contraction (%) [2]: 39.4%; Young's modulus (kPa) [3]: 76.4 kPa
4 | Cc1ccc(=O)n(-c2ccccc2)c1 [Pirfenidone] |  |  |  |  |  |  |  |  |  |  |  |  |  | IC50 [4]: 430 µg/mL (≈ 2320 µM)
